Experimental findings from PubChem BioAssay (NCI) are described below.

Several values for one entry are separate records, joined by “and”; a condition that tells them apart may be missing. Equal values may be shown once.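 Cultured in 96-well plates, cells were exposed to test compound for 48 hours across five concentrations. The concentration for 50% growth inhibition is given as GI50. TGI denotes the concentration required for complete inhibition of growth.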

Among the test systems are HOP-62 NSCLC; EKVX NSCLC; BT-549 breast; OVCAR-5 ovarian; MALME-3M melanoma; NCI-H226 lung; DU-145 prostate; LOX IMVI melanoma; SNB-19 CNS; CAKI-1 renal.
Holding throughout (assay): NCI tumour cell line growth inhibition, 48 h

As for `CC(C)=CCC\C(C)=C/C=C/C(C)=C\C=C\C(C)=C/C=C/C=C(C)\C=C\C=C(C)/C=C/C=C(/C)CCC=C(C)C`, the TGI with HOP-62 NSCLC, with EKVX NSCLC, in the assay on BT-549 breast, in the assay on OVCAR-5 ovarian, in the assay on MALME-3M melanoma and with NCI-H226 lung was more than 100 µM each time. Moreover, the TGI with DU-145 prostate, in the assay on LOX IMVI melanoma, in the assay on SNB-19 CNS and in the assay with CAKI-1 renal was more than 100 µM in each case.

Regarding `Cc1ccc2c(C)c3c(ccc4ccccc43)c[n+]2c1`, the GI50 with HOP-62 NSCLC was 5.93 µM; in the assay with EKVX NSCLC, 0.775 µM; with BT-549 breast, 3.57 µM; with OVCAR-5 ovarian, 39.5 µM; in the assay on MALME-3M melanoma it was 1.96 µM; in the assay with NCI-H226 lung, 21.1 µM. The GI50 was 14.7 µM with DU-145 prostate, 17.3 µM with LOX IMVI melanoma, 2.84 µM in the assay with SNB-19 CNS and 40.5 µM in the assay with CAKI-1 renal. For the same compound, the TGI with HOP-62 NSCLC was 24.7 µM; in the assay on EKVX NSCLC it was more than 100 µM; in the assay on BT-549 breast it was 16.6 µM; in the assay with OVCAR-5 ovarian, more than 100 µM; in the assay with MALME-3M melanoma, 5.69 µM; with NCI-H226 lung, more than 100 µM. The TGI with DU-145 prostate was 40.6 µM; with LOX IMVI melanoma it was 53.6 µM; in the assay with SNB-19 CNS it was 24.7 µM; with CAKI-1 renal it was more than 100 µM.

Take `Cc1ccc(CN2CCC(C(=O)Nc3ccc(-c4cc5ccccc5[nH]4)cc3)CC2)o1`: the GI50 with HOP-62 NSCLC is 55.8 µM; in the assay with EKVX NSCLC, more than 100 µM; with BT-549 breast, more than 100 µM; in the assay on OVCAR-5 ovarian, more than 100 µM; in the assay on MALME-3M melanoma, more than 100 µM; in the assay with NCI-H226 lung, more than 100 µM. The GI50 in the assay with DU-145 prostate, in the assay on LOX IMVI melanoma, in the assay on SNB-19 CNS and in the assay with CAKI-1 renal was more than 100 µM in each case. The TGI in the assay with HOP-62 NSCLC, in the assay on EKVX NSCLC, in the assay on BT-549 breast, with OVCAR-5 ovarian, in the assay on MALME-3M melanoma and in the assay with NCI-H226 lung was more than 100 µM in each case. In addition, the TGI in the assay with DU-145 prostate, in the assay on LOX IMVI melanoma, in the assay on SNB-19 CNS and in the assay on CAKI-1 renal was more than 100 µM in each case.

With `Cc1ccnc2c1ccc1c(C)ccnc12`, the GI50 was 0.508 µM with HOP-62 NSCLC; 0.389 µM in the assay on EKVX NSCLC; 0.521 µM in the assay with BT-549 breast; 0.75 µM with OVCAR-5 ovarian; 0.364 µM in the assay on MALME-3M melanoma; 0.412 µM in the assay on NCI-H226 lung. In addition, the GI50 in the assay with DU-145 prostate was 0.501 µM; in the assay on LOX IMVI melanoma it was 0.367 µM; in the assay on SNB-19 CNS, 0.592 µM; in the assay on CAKI-1 renal, 0.209 µM. Besides, the TGI in the assay with HOP-62 NSCLC turned out to be 12.6 µM; in the assay with EKVX NSCLC, 12.7 µM; in the assay on BT-549 breast, 14.3 µM; in the assay with OVCAR-5 ovarian it was 19 µM; in the assay with MALME-3M melanoma it was 5.27 µM; in the assay on NCI-H226 lung it was 8.21 µM. Further, the TGI with DU-145 prostate was determined as 14.2 µM; in the assay with LOX IMVI melanoma it was 4.66 µM; with SNB-19 CNS, 13.9 µM; with CAKI-1 renal, 10 µM.

Consider `C[C@@H](Oc1cc(-n2cnc3ccc(CN4CCN(C)CC4)cc32)sc1C(N)=O)c1ccccc1C(F)(F)F`, for which the GI50 in the assay on HOP-62 NSCLC is 0.0118 µM and 0.0199 µM; in the assay on BT-549 breast it was 0.0746 µM and 0.139 µM; in the assay with OVCAR-5 ovarian, < 0.0175 µM and 0.0264 µM; in the assay on MALME-3M melanoma, 2.81 µM and 2.77 µM; with DU-145 prostate, < 0.0134 µM and 0.00975 µM; in the assay with LOX IMVI melanoma it was < 0.018 µM and 0.0231 µM. The GI50 with SNB-19 CNS was 0.0233 µM and 0.0162 µM; in the assay with CAKI-1 renal, 0.337 µM and 0.222 µM. The TGI with HOP-62 NSCLC is 12.7 µM and > 10 µM; in the assay with EKVX NSCLC, 21.6 µM and > 10 µM; with BT-549 breast, 15.2 µM and > 10 µM; in the assay with OVCAR-5 ovarian, 16.6 µM and > 10 µM; with MALME-3M melanoma it was 7.62 µM and > 6.99 µM; in the assay with NCI-H226 lung, 19 µM and > 10 µM. Also, the TGI in the assay on DU-145 prostate was 0.652 µM and 0.188 µM; in the assay with LOX IMVI melanoma, 5.5 µM and > 10 µM; in the assay on SNB-19 CNS, 15.4 µM and > 10 µM; in the assay on CAKI-1 renal it was 15.1 µM and > 10 µM.

Turning to `O=C(Nc1ccc(-n2ccc3c(NC(=O)c4ccccc4)nccc32)cc1)c1ccc(Cl)c(C(F)(F)F)c1`, the GI50 in the assay on HOP-62 NSCLC was 3.4 µM; with EKVX NSCLC, 9.59 µM; in the assay with BT-549 breast, 6.5 µM; in the assay with OVCAR-5 ovarian it was 3.84 µM; with MALME-3M melanoma, 4.13 µM; in the assay with NCI-H226 lung, 6.17 µM. In addition, the GI50 with DU-145 prostate is 2.12 µM; with LOX IMVI melanoma, 0.112 µM; with SNB-19 CNS, 1.18 µM; in the assay on CAKI-1 renal it was 0.305 µM. The TGI was 13.2 µM with HOP-62 NSCLC; more than 50 µM with EKVX NSCLC; more than 50 µM in the assay with BT-549 breast; 27.3 µM with OVCAR-5 ovarian; 14.7 µM in the assay on MALME-3M melanoma; more than 50 µM with NCI-H226 lung. The TGI in the assay on DU-145 prostate stood at 10.7 µM; in the assay on LOX IMVI melanoma, 3.29 µM; with SNB-19 CNS it was 13.1 µM; in the assay with CAKI-1 renal it was 11.8 µM.

As for `COc1cccc(-c2cc(-c3cccc(NS(C)(=O)=O)c3)nc(N)c2C#N)c1O`, the GI50 with HOP-62 NSCLC was 0.135 µM; with EKVX NSCLC, 0.561 µM; with BT-549 breast, 0.716 µM; in the assay on OVCAR-5 ovarian, 1.08 µM; in the assay on MALME-3M melanoma, 0.0465 µM; in the assay with NCI-H226 lung, 0.372 µM. Further, the GI50 is 0.182 µM in the assay with DU-145 prostate, 0.136 µM with LOX IMVI melanoma, 0.486 µM in the assay with SNB-19 CNS and 0.141 µM in the assay with CAKI-1 renal. For the same compound, the TGI in the assay on HOP-62 NSCLC is more than 100 µM; in the assay on EKVX NSCLC, more than 100 µM; in the assay with BT-549 breast it was more than 47.4 µM; in the assay on OVCAR-5 ovarian, more than 100 µM; in the assay with MALME-3M melanoma, 93.4 µM; in the assay with NCI-H226 lung, more than 100 µM. Further, the TGI in the assay on DU-145 prostate is more than 100 µM; in the assay with LOX IMVI melanoma it was more than 100 µM; in the assay with SNB-19 CNS, more than 100 µM; in the assay with CAKI-1 renal, 88.9 µM.
